Assay results as given in ChEMBL document CHEMBL4196241, “Auranthine, a Benzodiazepinone from Penicillium aurantiogriseum: Refined Structure, Absolute Configuration, and Cytotoxicity” (J Nat Prod, 2018).
Active and inactive are the calls of the source. The calls are words filed in the database; no cut-off is given here.

Tests used:
HepG2 [1] = assay: Cytotoxicity against human HepG2 cells assessed as reduction in cell viability by CCK8 assay relative to control; assay type: functional, cell-based
[2] = (§1) Cytotoxicity against human IHKE cells assessed as reduction in cell viability by CCK8 assay; assay type: functional, cell-based
HepG2 [3] = assay: Cytotoxicity against human HepG2 cells assessed as reduction in cell viability at 100 uM by CCK8 assay relative to control; assay type: functional
HepG2 [4] = assay: Cytotoxicity against human HepG2 cells assessed as reduction in cell viability up to 100 uM by CCK8 assay; assay type: functional, cell-based
Homo sapiens [5] = species on record: Homo sapiens; assay: Cytotoxicity against human IHKE cells assessed as reduction in cell viability up to 100 uM by CCK8 assay; assay type: functional, cell-based
Homo sapiens [6] = species on record: Homo sapiens; assay: as §1; assay type: functional, cell-based

Row | SMILES | Activity (HepG2 [1]) | IC50 [2] | Activity (HepG2 [3]) | Activity (HepG2 [4]) | Activity (Homo sapiens [5]) | Activity (Homo sapiens [6])
1 | C=CC(C)(C)c1[nH]cnc1/C=C1\NC(=O)[C@H](C(C)C)NC1=O | Dose-dependent effect | 25 µM | <=56% |  |  | 
2 | N#CCC[C@@H]1NC(=O)c2ccccc2-n2c1nc1ccccc1c2=O |  |  |  | inactive | inactive | 
3 | CN1C(=O)c2ccccc2N2C(=O)c3ccccc3N[C@@H]2[C@@H]1CCC#N |  |  |  | inactive |  | Dose-dependent effect
4 | N#CCC[C@@H]1NC(=O)c2ccccc2N2C(=O)c3ccccc3N[C@H]12 |  |  |  | inactive | inactive | 
